Experimental data taken from PMC8566451, “Lead optimization of novel quinolone chalcone compounds by a structure–activity relationship (SAR) study to increase efficacy and metabolic stability” (Scientific Reports, 2021).

Legend:
porcine tubulin = target: T1, porcine tubulin (Sus scrofa, UniProt P02550+P02554); assay: In vitro tubulin polymerization assay; assay type: biochemical; details: 20 µM porcine tubulin; for effect on tubulin polymerization: 3 µM compound, 37 °C, 60 min; for effect on tubulin polymerization at higher concentrations: 10, 15 and 20 µM compound
T1 construct: purchased Cytoskeleton Inc., Denver, CO BK011P
Protocol: Spontaneous polymerization of 20 µM porcine tubulin was initiated with the addition of 1 mmol/L GTP at 37 °C and monitored every minute for 60 min in the presence of the indicated concentration of CTR-21, CTR-32, nocodazole, paclitaxel, or a DMSO vehicle control. To make the graph simpler, only 3 µM concentration is shown. […] A modified Dixon plot was used to determine the inhibitory concentration of CTR-21 and CTR-32 (Ki).
Microtubule assembly was assessed using a Tubulin Polymerization assay kit (BK011P; Cytoskeleton Inc., Denver, CO). […] Polymerization was started by incubating at 37 °C and followed by absorbance readings every 1 min at 340 nm for 1 h using a Synergy H4 plate reader.

HeLa cells = assay: Combination of CTR-21 with ABT-737, combinatorial index; assay type: cell-based, human
Protocol: (§1) (a) CTR-21 kills HeLa in a synergistic manner with ABT-737. Cells were treated with 0.78 nM CTR-21 and indicated concentrations of ABT-737. CI denotes combinatorial index, calculated according to described previously. (b) CTR-21 effectively kills paclitaxel-resistant cells when combined with paclitaxel. The paclitaxel-resistant MDA-MB-231TaxR cells were treated with 23 nM of CTR-21 and indicated concentrations of paclitaxel. TEXT PRINTED IN THE PICTURE: (a) Combo: HeLa: CI: 0.93 (ABT-737 (12.5 μM); CTR-21 (0.78 nM)); HeLa: CI: 0.94 (ABT-737 (6.25 μM); CTR-21 (0.78 nM)); HeLa: CI: 0.81 (ABT-737 (3.125 μM); CTR-21 (0.78 nM)); HeLa: CI: 0.48 (ABT-737 (1.5625 μM); CTR-21 (0.78 nM)) | (b) Combo: MDA-MB-231-TaxR: CI: 0.56 (Paclitaxel (75 nM); CTR-21 (23 nM)); MDA-MB-231-TaxR: CI: 0.38 (Paclitaxel (37.5 nM); CTR-21 (23 nM)); MDA-MB-231-TaxR: CI: 0.35 (Paclitaxel (18.75 nM); CTR-21 (23 nM)) DOUBTS OF THE COPYIST ABOUT THIS PICTURE: Each CI value is printed over a group of three bars (the two single agents and Combo). It is assigned here to the Combo, with the concentrations of the two agents given as conditions.

MDA-MB-231TaxR cells = assay: Combination of CTR-21 with paclitaxel, combinatorial index; assay type: cell-based, human; details: paclitaxel 18.75 nM + CTR-21 23 nM
Protocol: as §1

T1 sequence (P02554 whole entry): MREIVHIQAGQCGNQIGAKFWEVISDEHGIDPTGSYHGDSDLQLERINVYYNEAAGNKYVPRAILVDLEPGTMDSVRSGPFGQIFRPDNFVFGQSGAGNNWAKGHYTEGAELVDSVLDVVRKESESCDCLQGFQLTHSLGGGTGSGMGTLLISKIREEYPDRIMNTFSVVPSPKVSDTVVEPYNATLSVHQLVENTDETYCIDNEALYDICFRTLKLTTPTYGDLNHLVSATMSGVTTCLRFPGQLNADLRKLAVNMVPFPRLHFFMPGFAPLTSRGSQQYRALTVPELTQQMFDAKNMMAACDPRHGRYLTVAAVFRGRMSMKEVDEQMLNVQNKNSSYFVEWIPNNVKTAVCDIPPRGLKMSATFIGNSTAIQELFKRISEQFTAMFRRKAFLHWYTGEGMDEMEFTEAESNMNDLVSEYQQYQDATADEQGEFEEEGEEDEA
T1 sequence (P02550 whole entry): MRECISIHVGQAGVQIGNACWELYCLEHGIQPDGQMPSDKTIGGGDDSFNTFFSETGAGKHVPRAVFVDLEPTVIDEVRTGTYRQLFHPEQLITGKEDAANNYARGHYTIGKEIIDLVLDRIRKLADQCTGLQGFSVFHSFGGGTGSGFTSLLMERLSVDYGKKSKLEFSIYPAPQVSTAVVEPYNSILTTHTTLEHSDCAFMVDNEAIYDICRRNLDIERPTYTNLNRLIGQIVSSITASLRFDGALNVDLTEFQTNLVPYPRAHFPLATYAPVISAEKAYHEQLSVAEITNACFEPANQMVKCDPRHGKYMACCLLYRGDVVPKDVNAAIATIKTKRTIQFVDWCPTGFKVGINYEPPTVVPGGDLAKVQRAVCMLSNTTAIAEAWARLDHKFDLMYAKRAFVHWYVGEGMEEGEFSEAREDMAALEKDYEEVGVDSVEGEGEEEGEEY

Compound | effect on tubulin polymerization (porcine tubulin) | effect on tubulin polymerization at higher concentrations (porcine tubulin) | CI (combinatorial index) (HeLa cells; ABT-737 1.5625 μM + CTR-21 0.78 nM) | combination index (CI) (HeLa cells; CTR-21 0.78 nM with low doses of ABT-737) | CI (combinatorial index) (MDA-MB-231TaxR cells)
CCOc1ccccc1C(=O)/C=C/c1cc2ccccc2[nH]c1=O [CTR-32, (E)-3-(3-(2-ethoxyphenyl)-3-oxoprop-1-enyl)quinolin-2(1H)-one] | does not affect the steady state dynamics or Vmax of tubulin polymerization | almost completely inhibited the formation of microtubule polymers | – | – | –
COc1ccccc1C(=O)/C=C/c1cc2cccc(OC)c2[nH]c1=O [CTR-21, (E)-8-methoxy-3-(3-(2-methoxyphenyl)-3-oxoprop-1-enyl) quinolin-2(1H)-one] | reduced steady-state | did not appreciably increase the inhibition of tubulin dynamics | 0.48 | less than 1.0 | 0.35
